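Interpolation was linear, between the two tested concentrations surrounding the appropriate level; five concentrations were tested over 48 hours in 96-well plates. GI50 marks 50% less growth. TGI marks complete inhibition of growth.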

One assay deals with HCT-15 colon. The assay can be described thus: DTP human tumour cell line panel, 48 h.
Regarding `CN[C@@H](C)C(=O)N[C@H](C(=O)N1CCC[C@H]1C(=O)Nc1sc(-c2ncco2)nc1-c1ccccc1)C1CCCCC1`, the GI50 – broadly, the concentration giving 50% growth inhibition – is 22.6 µM and the TGI (as a rule, the concentration at which net growth stops) is above 78.7 µM.

Turning to `CC1=C2[C@@H](CC1)[C@]1(C)O[C@@](c3ccccc3)(C[C@H]1OC(=O)CO)[C@H]2OC(=O)/C=C/c1ccccc1`, the GI50 was 13.3 µM and the TGI was found to be 35.6 µM.

Take `NC(=O)c1csc(C2OC(CO)C(O)C2O)n1` (stereo unspecified): the GI50 was 4.97 µM and the total growth inhibition concentration (TGI) was determined as 1440 µM.

Consider `CCCN(CCS(C)(=O)=O)Cc1ccc(-c2ccc3ncnc(Nc4ccc(OCc5cccc(F)c5)c(Cl)c4)c3c2)o1`, for which the GI50 is above 25 µM and the TGI is above 25 µM.

Regarding `CC(C)C[C@H](NC(=O)CNC(=O)c1cc(Cl)ccc1Cl)B1OC(=O)CC(CC(=O)O)(C(=O)O)O1` (stereo partly specified), the GI50 is 0.0578 µM and the TGI worked out at 5.98 µM.

As to `CCc1ccc2c(c1)N(CCO)C1=C(C(=O)OC1)C2c1cccc(Br)c1` (stereo unspecified), the GI50 is 0.584 µM and the concentration for total growth inhibition (TGI) is 15.8 µM.

As for `CO/N=C(\COc1ccc2c(c1)[nH]c1ccccc12)c1ccc(F)cc1`, the GI50 was above 100 µM and the TGI is above 100 µM.

For the compound `COc1ccc(-c2nc(Nc3cc(C)[nH]n3)c3ccccc3n2)cc1`, the GI50 is 1.34 µM and the TGI is above 100 µM.

For `CN(C)CCCn1c(=O)c2ccccc2c2ccccc21`, the GI50 is 13.8 µM and the TGI is above 100 µM.

Turning to `O=c1[nH]c(=O)n(C2CC(O)C(COP(=O)(OCc3ccc([N+](=O)[O-])o3)N(CCCCCl)CC(O)CO)O2)cc1F` (stereo unspecified), the GI50 is 4.53 µM and the TGI is above 100 µM.

Take `O=C1OC(=O)C(=C\c2ccc3c(c2)OCO3)/C1=C/c1ccc2c(c1)OCO2`: the TGI is above 100 µM.

Regarding `CC(C)NCCCn1c(Sc2cc3c(cc2I)OCO3)nc2c(N)ncnc21`, the GI50 was 0.441 µM and the TGI is above 100 µM.

Turning to `O=C(/C=C\c1cccc([N+](=O)[O-])c1)/C=C/c1cccc([N+](=O)[O-])c1`, the GI50 was 5.1 µM and the total growth inhibition concentration (TGI) was above 100 µM.

As to `CN1C(=O)N(C)C2C1NN=c1s/c(=C\c3ccc(C(F)(F)F)cc3)c(=O)n12` (stereo unspecified), the GI50 was 0.488 µM and the total growth inhibition concentration (TGI) is above 100 µM.

As for `N#Cc1c(N2CCOCC2)nc(=S)[nH]c1-c1ccco1`, the GI50 is 6.2 µM and the concentration for total growth inhibition (TGI) was above 100 µM.

The subject of a further assay is BT-549 breast. The assay can be described thus: DTP human tumour cell line panel, 48 h.
Turning to `CN[C@@H](C)C(=O)N[C@H](C(=O)N1CCC[C@H]1C(=O)Nc1sc(-c2ncco2)nc1-c1ccccc1)C1CCCCC1`, the concentration for 50% growth inhibition (GI50) is 0.0598 µM and the TGI turned out to be 33.6 µM.

As for `CC1=C2[C@@H](CC1)[C@]1(C)O[C@@](c3ccccc3)(C[C@H]1OC(=O)CO)[C@H]2OC(=O)/C=C/c1ccccc1`, the GI50 is 0.487 µM and the TGI was determined as 15.8 µM.

As to `NC(=O)c1csc(C2OC(CO)C(O)C2O)n1` (stereo unspecified), the GI50 was above 60.7 µM and the TGI was above 10000 µM.

Consider `CCCN(CCS(C)(=O)=O)Cc1ccc(-c2ccc3ncnc(Nc4ccc(OCc5cccc(F)c5)c(Cl)c4)c3c2)o1`, for which the GI50 is above 25 µM and the TGI was above 25 µM.

For `CC(C)C[C@H](NC(=O)CNC(=O)c1cc(Cl)ccc1Cl)B1OC(=O)CC(CC(=O)O)(C(=O)O)O1` (stereo partly specified), the GI50 was 0.0324 µM and the TGI is 0.126 µM.

For `CCc1ccc2c(c1)N(CCO)C1=C(C(=O)OC1)C2c1cccc(Br)c1` (stereo unspecified), the GI50 was 1.35 µM and the total growth inhibition concentration (TGI) turned out to be 19.7 µM.

As to `CO/N=C(\COc1ccc2c(c1)[nH]c1ccccc12)c1ccc(F)cc1`, the GI50 was above 100 µM and the total growth inhibition concentration (TGI) was above 100 µM.

Consider `COc1ccc(-c2nc(Nc3cc(C)[nH]n3)c3ccccc3n2)cc1`, for which the GI50 was 3.07 µM and the TGI was 12.6 µM.

`CN(C)CCCn1c(=O)c2ccccc2c2ccccc21`: the GI50 was 29.5 µM and the total growth inhibition concentration (TGI) was determined as 73.9 µM.

In the case of `O=c1[nH]c(=O)n(C2CC(O)C(COP(=O)(OCc3ccc([N+](=O)[O-])o3)N(CCCCCl)CC(O)CO)O2)cc1F` (stereo unspecified), the GI50 was 0.663 µM and the concentration for total growth inhibition (TGI) is above 100 µM.

Take `O=C1OC(=O)C(=C\c2ccc3c(c2)OCO3)/C1=C/c1ccc2c(c1)OCO2`: the concentration for total growth inhibition (TGI) was above 100 µM.

As to `CC(C)NCCCn1c(Sc2cc3c(cc2I)OCO3)nc2c(N)ncnc21`, the GI50 was 1.51 µM and the TGI was above 100 µM.

As for `O=C(/C=C\c1cccc([N+](=O)[O-])c1)/C=C/c1cccc([N+](=O)[O-])c1`, the GI50 was 3.48 µM and the TGI was determined as 12.5 µM.

Consider `CN1C(=O)N(C)C2C1NN=c1s/c(=C\c3ccc(C(F)(F)F)cc3)c(=O)n12` (stereo unspecified), for which the GI50 is 3.66 µM and the concentration for total growth inhibition (TGI) is above 100 µM.

On to `N#Cc1c(N2CCOCC2)nc(=S)[nH]c1-c1ccco1`, for which the GI50 was 3.15 µM and the TGI came out at 18.1 µM.

Another assay deals with HCT-116 colon. The assay can be described thus: DTP human tumour cell line panel, 48 h.
Consider `CN[C@@H](C)C(=O)N[C@H](C(=O)N1CCC[C@H]1C(=O)Nc1sc(-c2ncco2)nc1-c1ccccc1)C1CCCCC1`, for which the GI50 was 25.6 µM and the TGI was above 85.4 µM.

With `CC1=C2[C@@H](CC1)[C@]1(C)O[C@@](c3ccccc3)(C[C@H]1OC(=O)CO)[C@H]2OC(=O)/C=C/c1ccccc1`, the GI50 is 15.4 µM and the concentration for total growth inhibition (TGI) stood at 31.6 µM.

The compound `NC(=O)c1csc(C2OC(CO)C(O)C2O)n1` (stereo unspecified) registered a total growth inhibition concentration (TGI) of 6870 µM.

As for `CCCN(CCS(C)(=O)=O)Cc1ccc(-c2ccc3ncnc(Nc4ccc(OCc5cccc(F)c5)c(Cl)c4)c3c2)o1`, the GI50 was above 25 µM and the TGI was above 25 µM.

`CC(C)C[C@H](NC(=O)CNC(=O)c1cc(Cl)ccc1Cl)B1OC(=O)CC(CC(=O)O)(C(=O)O)O1` (stereo partly specified): the GI50 was 0.0267 µM and the TGI was determined as 0.0711 µM.

For the compound `CCc1ccc2c(c1)N(CCO)C1=C(C(=O)OC1)C2c1cccc(Br)c1` (stereo unspecified), the GI50 is 0.449 µM and the concentration for total growth inhibition (TGI) was determined as 14 µM.

With `CO/N=C(\COc1ccc2c(c1)[nH]c1ccccc12)c1ccc(F)cc1`, the GI50 was 20.6 µM and the concentration for total growth inhibition (TGI) is above 100 µM.

The values above are taken from PubChem BioAssay (NCI).
